Source: patent publication US9834575B2, “Cancer therapy” (TriAct Therapeutics, Inc., priority 2013, dated 2017)
≈ marks a conversion by molar mass, not a printed value. Read-outs that look alike come from different tables or passages of the source.

What was measured:
[1] = Solubility of NDGA in intestinal fluids; type: physicochemical; details: fassgf or other biorelevant
H1975, A427, A549 cells = experiment: Cell survival/proliferation (CyQuant) of NSCLC cell lines in 10% serum from untreated mice spiked with drug; type: cell-based, human; details: 72 h
Protocol: The CyQuant™ assay (Invitrogen) may be used to differentiate antioxidant activity from anti-proliferative activity. Briefly, the assay is based on dye fluorescence enhancement upon binding to cellular nucleic acids. Cells are lysed by addition of a buffer containing the CyQUANT™-GR dye; there are no washing steps, growth medium changes or long incubations. The resulting fluorescence is proportional to the number of cells in the sample and is measured directly using the TD-700 fluorometer equipped with a fluorescein filter kit. The CyQUANT™ assay can detect much lower cell numbers than Neutral Red or methylene blue assays. […] Thus, cells can be frozen prior to assaying; time course assays are facile and data obtained from samples taken at widely different time intervals can be directly compared. […] Cell number differences were measured using the CyQuant® assay (Invitrogen). H1975, A427, A549 cells were seeded at 1×10^4 cells/well in a 96 well plate and incubated overnight at 37° C. […] The plates were incubated for 72 h at 37° C. and the relative cell number per well was determined using the CyQuant® reagent. Fluorescence was measured using a Molecular Devices plate reader.

A549 cells = experiment: Cell number (CyQuant) after culture in 10% serum from mice orally administered 300 mg/Kg drug, A549; type: cell-based, human; details: A549, 72 h
Protocol: (§1) The plates were incubated for 72 h at 37° C. and the relative cell number per well was determined using the CyQuant® reagent. Fluorescence was measured using a Molecular Devices plate reader. […] Serum from five animals was pooled, mixed with culture medium at a concentration of 10% and cells incubated for 72 hours. Cell number was then determined using the CyQuant® assay. […] Differences in cell number for cells cultured in 10% serum was compared by t-test. P values are: A427, p=0.009; A549, p=0.133; and […], p=0.744.

[2] = Metabolite profiling of NDGA in plasma after oral administration in male CD-1 mice (LC-HRAMS, semi-quantitative); type: in vivo
Protocol: The dosing solution was prepared at a nominal concentration of 20 mg/mL; detailed description is shown in Appendix I. The actual concentration, established using HPLC-MS, was 84.9% of nominal (+/−8.9%) and was within the acceptable range according to the study protocol. Animal dosing and blood collection were performed according to the study protocol; details are shown in Appendix II. […] Plasma samples were prepared from blood according to the study protocol. Aliquots of the stabilized (with ascorbic acid) plasma samples were treated with MeCN (1:3 ratio) containing a mixture of internal standards (metoprolol, propranolol, and warfarin, each at 500 ng/mL) for protein precipitation. After centrifugation, clear supernatants were analyzed directly using LC-High Resolution Accurate Mass Spectrometry (HRAMS) as described below.
The samples were separated using HPLC, and two stationary phases were evaluated: ACE pentaflurophenyl C18 (Phenomenex) and dC18 (Waters). […]
Following the pre-scan, the FT analyzer is set to perform a slow survey scan at high resolution (HRMS). […] The decision event selects the two most intense ions detected in the pre-scan which are on the parent mass list. […]
1) Subtraction of the chromatogram of a control sample (solvent control in blank matrix) from the analyzed sample, leading to creation of a “SUB” file (Appendix II). […]

[3] = Exposure (plasma concentration by LC-MS/MS) of NDGA after oral administration in male CD-1 mice at 100 mg/kg; type: in vivo; details: for concentration at 0.167 h / concentration at 0.5 h / concentration at 2 h / concentration at 4 h: male, CD-1, mouse, plasma, po, 100 mg/kg, PO 100 mg/kg; for concentration at 0.167 h: time point 0.167 hr; for concentration at 0.5 h: time point 0.50 hr; for concentration at 2 h: time point 2.0 hr; for concentration at 4 h: time point 4.0 hr
Protocol: Test compound was dosed at 100 mg/kg from 0.5% MC and 0.5% NaCMC in DI water in separate groups. Analytical stock solutions (1 mg/mL of the free drug) were prepared in DMSO. Standards were made from independently prepared stock solutions of the test compound. Standards and QCs were prepared in male CD-1 mouse plasma containing K2EDTA as an anticoagulant with 10% of 0.1M ascorbic acid in water. Standards were prepared at concentrations of 1000, 500, 100, 50, 10, 5, 1, and 0.5 ng/mL by serial dilution. Standards were treated identically to the study samples. Plasma samples were manually extracted using acetonitrile precipitation. All samples were thawed on ice, and kept on ice during preparation. […] [table] • Flow Rate: 300 μL/min • Injection Volume: 10 μL • Run Time: 4.5 min • Temperature: ambient • Autosampler Wash: #1: 1:1:1 (v:v:v) water:acetonitrile:isopropanol with 0.2% formic acid • #2: 50:50 (v:v) methanol:water [table] […] All data are expressed as ng/mL of the free drug. Samples that were below the limit of quantitation were not used in the calculation of averages. Plasma concentrations versus time data are plotted in FIGS. 24 and 25.

A427 cells = experiment: Cell number (CyQuant) after culture in 10% serum from mice orally administered 300 mg/Kg drug, A427; type: cell-based, human; details: A427, 72 h
Protocol: as §1

[4] = In vitro stability of NDGA in freshly drawn whole blood of CD-1 mice; type: in vitro ADME; details: CD-1 mouse whole blood
Protocol: The aliquots were treated with MeCN (1:3 ratio) containing a mixture of internal standards (metoprolol, propranolol, and warfarin, each at 500 ng/mL) for protein precipitation. After centrifugation, supernatants were analyzed directly using LC-HRAMS as described below.

[5] = 0.5% MC in DI water, group average
[6] = 0.5% MC in DI water, group average, read-out: Average plasma concentration
[7] = 0.5% NaCMC in DI water, group average
[8] = 0.5% NaCMC in DI water, group average, read-out: Average plasma concentration

Work on CC(Cc1ccc(O)c(O)c1)C(C)Cc1ccc(O)c(O)c1 (stereo not shown) [NDGA, nordihydroguaiaretic acid] yielded a solubility [1] of roughly 8 µg/mL (≈ 26.5 µM), a Concentration above which reduced cell proliferation was observed (H1975, A427, A549 cells; 10% mouse serum spiked with drug) greater than 10 µM and a Cell number reduced (H1975, A427, A549 cells; maximum concentration tested, 10% mouse serum, all cell lines averaged) of 33%. The “Number of cells after culture in 10% serum from treated mice (in words)” value (A549 cells) was “not significant at the 0.05 level”, the “Adverse effects in the dosed animals” value ([2]; male CD-1 mice, 300 mg/kg PO, 0.5% NaCMC in water) was “No adverse effects were observed” and the AUC ([2]; mouse plasma, 300 mg/kg PO NDGA, trapezoidal approximation, 5-240 min) was 28.5 peak area ratio* min. The “Observations and adverse reactions” value ([3]; 100 mg/kg PO, one mouse (#187) died ~5 min after 30 min sample, possibly stress) was “No other adverse effects were observed”, the concentration at 0.167 h [3, 5] was 43.4 ng/mL and the concentration at 0.5 h [3, 6] was 44.2 ng/mL. For the same compound, the concentration at 2 h [3, 5] was 3.08 ng/mL, the concentration at 4 h [3, 6] was 3.19 ng/mL and the concentration at 0.167 h [3, 7] was 70.8 ng/mL. The concentration at 0.5 h [3, 8] was 49.6 ng/mL, the concentration at 0.5 h ([3]; 0.5% NaCMC in DI water, individual mice #183-187, read-out: Individual plasma concentration Conc.) was 40.9 ng/mL and the concentration at 2 h [3, 7] was 1.83 ng/mL. The concentration at 4 h [3, 8] was 2.75 ng/mL, the concentration at 4 h ([3]; 0.5% NaCMC in DI water, individual mice #183-186, read-out: Individual plasma concentration Conc.) was 3.24 ng/mL and the “Number of cells after culture in 10% serum from treated mice (in words)” value (A427 cells) was “decrease was statistically significant”. The “Stability of NDGA in whole blood” value ([4]; time 0 minutes) was 100, the “Stability of NDGA in whole blood” value ([4]; time 15 minutes) was 7.2 and the “Putative metabolites detected upon incubation in whole blood in vitro” value ([4]; up to 60 minutes) was “No putative metabolites were detected”. The “Stability in whole blood sample (in words)” value ([4]; possibly impacted by poor recovery) was “appears to be unstable”.
